# According to US9687467B2, “Diagnosis and treatment of taxane-resistant cancers” (Children's Medical Center Corporation, priority 2011, dated 2017):
# How the values were obtained:
# [1] = tested on: MES-SA^DX5 cells; test: MTT cell viability assay, paclitaxel response after miRNA transfection; assay type: cell-based, human; conditions: cells transfected with scrambled non-targeting miRNA, 100 nM paclitaxel
# Method: The paclitaxel-resistant cell lines MES-SA^DX5 and A549^TR were transfected with a scrambled non-targeting miRNA (control) and an miR-135a mimic (mimic), respectively. Cells were subsequently treated with 100 nM paclitaxel and cell viability was assessed using the MTT assay (FIGS. 2A, 2B). The percentage of apoptotic cells was assessed by Annexin V-staining and FACS analysis (FIGS. 2C, 2D). Values are presented as percent cell survival in paclitaxel-treated cells relative to untreated cells. *P<0.05, **P<0.001 as determined by Wilcoxon's rank sum test.
# Cell growth inhibition was determined by a 3-(4,5-dimethylthiazol-2-yl)-2,5-diphenyltetrazolium (MTT) bromide assay. Briefly, ˜2.5×10^4 cells were plated in a 96-well plate and paclitaxel was added in appropriate concentrations 24 hours later. […] Absorbance was determined using a 96-well SpectraMax plate reader (Molecular Devices, Sunnyvale, Calif.) at 560 nm and 650 nm (background).
# Double-stranded RNA oligos representing a mature sequence that mimics endogenous miR-135a, anti-miR-135a designed to inhibit endogenous miR-135a, and anti-miR negative control were all obtained from Ambion™ and were transfected into cell lines at ˜50% confluence at 30 nM concentration with siLentFect (Bio-Rad™). […] The next day, luciferase activity was measured using the Dual-Glo® Luciferase assay system (Promega™, Madison, Wis.). […]
# [2] = tested on: T20.2 xenografts; test: Retransplantation xenograft, paclitaxel-resistant clone; assay type: in vivo, nude mice
# Method: FIGS. 6A-6C are a series of graphs showing data that validate the A549 in vivo paclitaxel resistance model. (FIG. 6A) Tumor cell lines established after an initial round of inoculation and treatment with either vehicle (T28.2) or 15 mg/kg paclitaxel (T20.2) were harvested during log-phase growth and reinjected subcutaneously into the flanks of nude mice. When the average tumor volume was ˜120 mm^3, vehicle (open circles or squares) or 15 mg/kg paclitaxel (closed circles or squares) was administered intraperitoneally every other day. Treatment was continued until tumors reached approximately four times their initial volume. Each curve represents the average tumor growth±s.e.m. for 10 mice per group. […] Each bar represents the average tumor growth±s.e.m. for 10 mice per group. NS: not significant, *P<0.05 as determined by Wilcoxon's rank sum test. (FIG. 6C) Tumors were harvested, cultured in vitro and cell viability was assessed using the MTT assay. Values are presented as percentage of cell survival in paclitaxel-treated cells relative to untreated cells. White bars represent LC50s from tumor cell lines established from T28.2 tumors treated with vehicle. Black bars represent LC50s from cell lines established from T20.2 tumors treated with paclitaxel. Shown are the mean±s.e.m. of two independent experiments, each performed in triplicate. *P<0.05 as determined by Wilcoxon's rank sum test. […]
structure (smiles),measurement,setting,value
CC(=O)O[C@H]1C(=O)[C@@]2(C)[C@H]([C@H](OC(=O)c3ccccc3)[C@]3(O)C[C@H](OC(=O)[C@H](O)[C@@H](NC(=O)c4ccccc4)c4ccccc4)C(C)=C1C3(C)C)[C@]1(OC(C)=O)CO[C@@H]1C[C@@H]2O [paclitaxel],cell survival in paclitaxel-treated cells relative to untreated cells,[1],102.2%
same,tumor growth after paclitaxel treatment,[2]; 15 mg/kg paclitaxel i.p.,only a slight delay in tumor growth
same,reduction of relative tumor burden at the end of the experiment,[2]; 15 mg/kg paclitaxel i.p. vs vehicle,1.4 fold
